Measured values reported in US4918056A, “2-substituted arabinopyranosyl nucleosides and nucleotides” (priority 1986, dated 1990).

Tests used:
[1] = tested on: L1210 leukemia cells; test: L1210 leukemia cell growth inhibition (48 hr, Coulter counter); type: cell-based, mouse; conditions: for IC50: Mus musculus, L1210, RPMI 1640, 10% fetal calf serum; for growth inhibitory activity in words: compared with 85024
Procedure: Compounds 85024, 85023, 85058, 85027 and 85060 having a glycosidic linkage between the 2'carbon of the arabinose (in pyranose configuration) and base were evaluated for their growth inhibitory action on L1210 leukemia cells maintained in RPMI 1640 medium supplemented with 10% fetal calf serum and 16 mM HEPES, pH 7.2. Cellular growth inhibition was determined by incubating […] for 48 hr in 2 ml of media containing varying concentrations of drugs. Cell growth inhibition (50% growth inhibitory concentration, IC50) was determined after counting cells with a Coulter counter (Bernacki et al., Cancer Res. 45, 695, 1985). Drug concentrations which inhibited cell growth by 50% (IC50) are listed for each compound in Table 1.

[2] = tested on: L1210 leukemia; test: Therapeutic activity of 85027, 5-FU and ara-C in DBA/2 mice with L1210 leukemia; type: in vivo, mouse (DBA/2); set-up: Mean ± SD survival: unit not given here; conditions: for Median survival: control 6; for Mean ± SD survival: control 6.4 ± 0.2
Procedure: The therapeutic activity of 85027 was compared with that of 5-Fluorouracil (5-FU) and Cytosine Arabinoside (ara-C) in DBA/2 mice with L1210 Leukemia. (Table 3) Tests were performed in accordance with the procedure described in Example 8. […] 5-FU was administered i.p. on days 1,3 and 6.

[3] = tested on: L1210/ara-C leukemia; test: Therapeutic activity in DBA/2N mice with ara-C resistant L1210 leukemia
Procedure: (§1) In conducting the evaluations, the activity was tested against intraperitoneal (i.p.) implanted leukemia in mice.
(§2) DBA/2N female mice (20 g) were implanted i.p. with 1×10^6 L1210 leukemia cells on day 0. Mice were weighed and inspected for tumor growth and survival daily. […] Dosages varied from 1 to 800 mg/kg/day (mkd).
(§3) Survival time was measured in days after tumor implantation. % ILS (increase in life span) was based on mean survival.
(§4) Testing was followed as described in the NCI protocol and evaluation by comparison of median survival time (ST) of the treated animals to that of the control animals by the percentage increase in % ILS.
(§5) Drug resistant L1210 leukemia cell sublines were obtained from the National Cancer Institute. […] Eight mice were used as controls and five mice for each drug dosage group. Drugs were administered i.p. once per day on days 1, 2, 3, 4 and 5.

[4] = tested on: L1210 leukemia cells; test: Reversal of L1210 growth inhibition by salvageable nucleosides; type: cell-based, mouse; conditions: for IC50: Mus musculus
Procedure: Reversal studies were conducted as follows: […], 85027 or 5-FdUr were added at various concentrations near their IC50 to cultures of L1210 leukemia cells, maintained in PRMI 1640 medium supplemented with 10% fetal calf serum and 16mM HEPES, pH 7.2 as described in Example 9. Nucleosides including thymidine (1×10^-5 M), uridine (1×10^-4 M), deoxyuridine ([…]), adenosine (1×10^-4 M), or guanosine (1×10^-5 M) were also added to identical drug (85024, 85027 or 5-FdUr) containing L1210 leukemia cultures. Cellular growth inhibition or its prevention by the addition of salvageable nucleosides was determined 48 hours later by counting cells using an electronic Coulter Counter.

[5] = tested on: L1210/5-FU leukemia; test: Therapeutic activity in DBA/2N mice with 5-FU resistant L1210 leukemia; type: in vivo, mouse (DBA/2N female)
Procedure: as §1, §2, §3, §4, §5

[6] = 5 mkd i.p. (head: × 5; text: × 3, days 1, 3 and 6)
[7] = 25 mkd i.p. (head: × 5; text: × 3, days 1, 3 and 6)

`COC1OC[C@@H](OC(C)=O)[C@@H](OC(C)=O)[C@]1(F)n1cc(F)c(=O)[nH]c1=O` (stereo partly drawn) [compound 85027, Methyl 3,4-di-0-acetyl-2-deoxy-2(R)-[1H,3H-2,4-dioxo-5-fluoro-1-pyrimidinyl]-2-fluoro-α-D-arabinopyranoside [5b] and Methyl 3,4-di-0-acetyl-2-deoxy-2(R)-[1H,3H-2,4-dioxo-5-fluoro-1-pyrimidinyl]-2-fluoro-β-D-arabinopyranoside[6b]] was tested, and the IC50 [1] was 34 µM, the “Survival Range” value ([2]; 50 mkd × 5 i.p.) was 8-8 days and the Median survival ([2]; 50 mkd × 5 i.p.) was 8 days. The “Mean ± SD survival” value ([2]; 50 mkd × 5 i.p.) was 8 ± 0, the “Survival Range” value ([2]; 100 mkd × 5 i.p.) was 7 to 8 days and the Median survival ([2]; 100 mkd × 5 i.p.) was 8 days. The “Mean ± SD survival” value ([2]; 100 mkd × 5 i.p.) was 7.8 ± 0.2, the “Survival Range” value ([2]; 200 mkd × 5 i.p.) was 8 to 9 days and the “therapeutic activity compared with araC” value ([2]; 200 mkd × 5 i.p.) was “less therapeutic activity than araC”. The Median survival ([2]; 200 mkd × 5 i.p.) was 8 days, the “Mean ± SD survival” value ([2]; 200 mkd × 5 i.p.) was 8.2 ± 0.22 and the “% ILS (increase in life span)” value ([2]; 85027, 50 mkd × 5 i.p., p < 0.01) was 25%. The “% ILS (increase in life span)” value ([2]; 85027, 100 mkd × 5 i.p., p < 0.05) was 22%, the “% ILS (increase in life span)” value ([2]; 85027, 200 mkd × 5 i.p., p < 0.01) was 29% and the “cross resistance to ara-C and 5-FU” value ([3]; summary of L1210/ara-C and L1210/5-FU tests) was “not cross resistant”. The “reversal of cellular cytotoxicity by exogenous nucleosides” value ([4]; exogenous thymidine, uridine or deoxyuridine, tissue culture) was “not reversed by exogenous thymidine, uridine or deoxyuridine” and the “effect of added nucleoside on the IC50” value ([4]; thymidine (1×10^-5 M), uridine (1×10^-4 M) or deoxyuridine (1×10^-5 M)) was less than 10%.
`CCCCCC(=O)O[C@@H]1[C@H](OC(=O)CCCCC)COC(OC)[C@@]1(F)n1ccc(=O)[nH]c1=O` (stereo partly drawn) [compound 85058, Methyl 2-deoxy-2(R)-[1H,3H-2,4-dioxo-1-pyrimidinyl]-2-fluoro-3,4-di-0-hexanoyl-α-D-arabinopyranoside [5d] and Methyl 2-deoxy-2(R)-[1H,3H-2,4-dioxo-1-pyrimidinyl]-2-fluoro-3,4-di-0-hexanoyl-β-D-arabinopyranoside [6d]] was tested, and the IC50 [1] was 40 µM and the “growth inhibitory activity in words” value [1] was “did not significantly affect activity”.
In the case of `O=c1[nH]cc(F)c(=O)[nH]1` [5-FU, 5-Fluorouracil], the “% ILS (increase in life span)” value ([2]; 5-FU, 5 mkd i.p. (head: × 5; text: × 3, days 1, 3 and 6), p < .01) is reported as 41%, the “% ILS (increase in life span)” value ([2]; 5-FU, 25 mkd i.p. (head: × 5; text: × 3, days 1, 3 and 6), p < .01) is reported as 88% and the “% ILS (increase in life span)” value ([2]; 5-FU, 50 mkd × 5 i.p., p < .01) is reported as 34%. The “% ILS (increase in life span)” value ([2]; 5-FU, 100 mkd × 5 i.p., p < .05) was 22%, the “% ILS (increase in life span)” value ([2]; 5-FU, 200 mkd × 5 i.p., p < .05) was 22% and the “Survival Range” value [2, 6] was 9-9 days. The Median survival [2, 6] was 9 days, the “Mean ± SD survival” value [2, 6] was 9 and the “Survival Range” value [2, 7] was 12-12 days. The Median survival [2, 7] was 12 days, the “Mean ± SD survival” value [2, 7] was 12 and the toxicity to mice ([2]; 50, 100 and 200 mkd × 5 i.p.) was “extremely toxic to mice causing severe weight loss”. The “weight to which mice fell (severe weight loss)” value ([2]; 50, 100 and 200 mkd × 5 i.p.) was 13 to 14 g, the “Survival Range” value ([2]; 50 mkd × 5 i.p.) was 8 to 9 days and the Median survival ([2]; 50 mkd × 5 i.p.) was 9 days. For the same compound, the “Mean ± SD survival” value ([2]; 50 mkd × 5 i.p.) was 8.6 ± 0.2, the “Survival Range” value ([2]; 100 mkd × 5 i.p.) was 7 to 8 days and the Median survival ([2]; 100 mkd × 5 i.p.) was 8 days. For the same compound, the “Mean ± SD survival” value ([2]; 100 mkd × 5 i.p.) was 7.8 ± 0.2, the “Survival Range” value ([2]; 200 mkd × 5 i.p.) was 7 to 8 days and the Median survival ([2]; 200 mkd × 5 i.p.) was 8 days. The “Mean ± SD survival” value ([2]; 200 mkd × 5 i.p.) was 7.8 ± 0.2, the therapeutic effect ([5]; 25 mkd × 5) was “did not” and the “% ILS (increase in life span)” value ([5]; 25 mkd × 5 i.p.) was 12%. The “Mean Animal Weight” value ([5]; 25 mkd × 5 i.p.) was 17.6 g, the “Survival Range” value ([5]; 25 mkd × 5 i.p.) was 5 to 9 days and the Median survival ([5]; 25 mkd × 5 i.p., control 9) was 8 days. The “Mean ± SD survival” value ([5]; 25 mkd × 5 i.p., control 9.25 ± 0.2) was 7.6 ± 0.7 days.
In the case of `Nc1ccn([C@@H]2O[C@H](CO)[C@@H](O)[C@@H]2O)c(=O)n1` [ara-C, Cytosine Arabinoside], the “Survival Range” value ([2]; 50 mkd × 5 i.p.) is reported as 9 to 14 days, the Median survival ([2]; 50 mkd × 5 i.p.) is reported as 14 days and the “Mean ± SD survival” value ([2]; 50 mkd × 5 i.p.) is reported as 13.0 ± 1.0. The “Survival Range” value ([2]; 100 mkd × 5 i.p.) was 14 to 15 days, the Median survival ([2]; 100 mkd × 5 i.p.) was 14 days and the “Mean ± SD survival” value ([2]; 100 mkd × 5 i.p.) was 14.4 ± 0.2. The “Survival Range” value ([2]; 200 mkd × 5 i.p.) was 8 to 19 days, the Median survival ([2]; 200 mkd × 5 i.p.) was 9 days and the “Mean ± SD survival” value ([2]; 200 mkd × 5 i.p.) was 12.4 ± 2.3. The “% ILS (increase in life span)” value ([2]; ara-C, 50 mkd × 5 i.p., p < .05) was 104%, the “% ILS (increase in life span)” value ([2]; ara-C, 100 mkd × 5 i.p., p < .01) was 126% and the “% ILS (increase in life span)” value ([2]; ara-C, 200 mkd × 5 i.p., p < .01) was 95%. The effect on lifespan ([2]; i.p. 5 day schedule, 50, 100 and 200 mg/kg) was “most effective causing a doubling of lifespan”, the “Survival Range” value ([3]; 100 mkd × 5 i.p.) was 7-7 days and the “% ILS (increase in life span)” value ([3]; 100 mkd × 5 i.p., NS) was 0%. The Median survival ([3]; 100 mkd × 5 i.p., control 7) was 7 days, the “Mean ± SD survival” value ([3]; 100 mkd × 5 i.p., control 7.1 + 0.1) was 0 days and the therapeutic effect ([3]; mice with L1210/ara-C leukemia (Table 4)) was “no therapeutic effect”. For the same compound, the “Mean Animal Weight” value ([3]; mouse, in vivo, ip) was 20.0 g.
`COC1OC[C@H]2OC(C)(C)O[C@H]2C1(F)n1ccc(=O)[nH]c1=O` (mixture of isomers) [compound 85023, Methyl 2-deoxy-3,4-0-isopropylidene-2-rac-[1H,3H-2,4-dioxo-1-pyrimidinyl]-2-fluoro-α-D-arabinopyranoside [5g] and Methyl 2-deoxy-3,4-0-isopropylidene-2-rac-[1H,3H-2,4-dioxo-1-pyrimidinyl]-2-fluoro-β-D-arabinopyranoside [6g]] was tested, and the IC50 [1] was greater than 100 µM and the “growth inhibitory activity in words” value [1] was “loss in biological inactivity”.
`COC1OC[C@@H](OC(C)=O)[C@@H](OC(C)=O)[C@]1(F)n1cc(C)c(=O)[nH]c1=O` (stereo partly drawn) [compound 85060, Methyl 3,4-di-0-acetyl-2-deoxy-2(R)-[1H,3H-2,4-dioxo-5-methyl-1-pyrimidinyl]-2-fluoro-α-D-arabinopyranoside [5c] and Methyl 3,4-di-0-acetyl-2-deoxy-2(R)-[1H,3H-2,4-dioxo-5-methyl-1-pyrimidinyl]-2-fluoro-β-D-arabinopyranoside [6c]] was tested, and the IC50 [1] was greater than 100 µM and the “growth inhibitory activity in words” value [1] was “inactive”.
`O=c1[nH]c(=O)n([C@H]2C[C@H](O)[C@@H](CO)O2)cc1F` [5-FdUr, 5-Fluorodeoxyuridine, reference compound] was tested, and the IC50 ([4]; L1210, with 1×10^-5 M thymidine) was greater than 0.01 µM and the IC50 ([4]; L1210, without added thymidine) was 0.0003 µM.
